# Data published in patent US20130331357A1, “COMBINATION THERAPY OF HSP90 INHIBITORY COMPOUNDS WITH PROTEASOME INHIBITORS” (SYNTA PHARMACEUTICALS CORP., priority 2011, published 2013).
# Experiments:
# H1838 cells = test: Cell viability assay, H1838 NSCLC cells; type: cell-based, Human; details: bortezomib day 1, compound 1 day 2; 72 hours after compound 1 exposure (FIG. 6)
# Method: Human H1703, H1975, H1838 NSCLC cells, U266 multiple myeloma cells, HCT116 colon cancer cells and Detroit562 head and neck cancer cells were purchased from the American Type Culture Collection (Manassas, Va.). H1975, H1703, H1838 and U266 cells were grow in RPMI media, HCT116 cells were grown in McCoy's media and Detroit562 cells were grown in MEM. Fetal bovine serum (10%) was added to all media, along with 2 mM L-glutamine and antibiotics (100 IU/ml penicillin and 100 μg/ml streptomycin) purchased from Sigma Aldrich. Cells were maintained at 37° C., 5% CO2 atmosphere.
# Cell viability was measured using the Cell Titer-Glo assay (Promega). In brief, cells were plated in 96-well plates in triplicate at optimal seeding density (determined empirically for each cell line) and incubated at 37° C., 5% CO2 atmosphere for 24 hr prior to the addition of drug or vehicle (0.3% DMSO) to the culture medium. At the end of the assay, Cell Titer-Glow was added to the wells per manufactures recommendation, shaken for two minutes and incubated for 10 minutes at room temperature. Luminescence (0.1 sec) was measured with a Victor II microplate reader (Perkin Elmer) and the resulting data were used to calculate cell viability, normalized to vehicle control.
# H1703 cells = test: Cell Titer-Glo cell viability assay, H1703 NSCLC cells; type: cell-based, Human; details: for cells killed: viability 72 hr later
# Method: Cells were maintained at 37° C., 5% CO2 atmosphere.
# […] […] Viability was assessed 72 hr later.
# Combination Index (CI) was then determined using the median effect analysis software CalcuSyn 2.0 (CalcuSyn, Inc.). A Combination Index greater than 1, equal to 1 or less than 1 indicates antagonism, additivity and synergism, respectively.
# [1] = Phase 1 clinical investigations, intravenous Compound 1; type: in vivo, human
# From the text: Compound 1 was advanced into phase 1 clinical investigations studying patients with refractory hematologic malignancies using two intravenous schedules of administration: weekly for 3 out of every 4 weeks and twice weekly without breaks dosing by one-hour infusion.
# [2] = bortezomib day 1, compound 1 Day 2, 72 hours after compound 1 exposure (FIG. 4)
# [3] = concurrent, one hour on both days 1 and 2, 72 hours after final drug exposure (FIG. 5)
compound,measurement,setting,value
"CC(C)c1cc(-c2nnc(O)n2-c2ccc3c(ccn3C)c2)c(O)cc1O [compound 1, 3-(2,4-dihydroxy-5-isopropyl-phenyl)-4-(1-methyl-indol-5-yl)-5-hydroxy-[1,2,4] triazole]",cell death by microscopy,H1838 cells,weak activity
same,cell death by microscopy,H1703 cells; [2],weak activity
same,cells killed,"H1703 cells; compound 1 alone 50 nM, 8 hr pulse, washout",10%
same,cells killed,"H1703 cells; compound 1 alone 74 nM, 1 hr exposure Day 1 and Day 2",15%
same,cell death by microscopy,H1703 cells; [3],weak activity
same,"efficacy signals, hematologic malignancies",[1]; phase 1 AML and CML patients,declines in peripheral and bone marrow blasts
same,cardiac effects following the infusion,[1]; phase 1 patients,Moderate tachycardia and PR interval prolongation
same,"efficacy signals, solid tumors",[1]; phase 1 patients,partial responses in colorectal cancer and melanoma
same,patients with Grade 1-2 infusional reactions,[1]; phase 1 patients,5%
same,severe hepatotoxicity,"[1]; phase 1 patients, unlike geldanamycin-based HSP90 inhibitors",has not been observed
same,dose limiting toxicities,"[1]; phase 1 program, solid tumors and refractory hematologic malignancies, one-hour infusion",reversible fatigue and diarrhea
"CC(C)C[C@H](NC(=O)[C@H](Cc1ccccc1)NC(=O)c1cnccn1)B(O)O [bortezomib, reference compound]",cell death by microscopy,H1838 cells,weak activity
same,cells killed,"H1703 cells; bortezomib alone 22 nM, 1 hr exposure Day 1 and Day 2",15%
same,cell death by microscopy,H1703 cells; [2],weak activity
same,cells killed,"H1703 cells; bortezomib on its own 15 nM, 8 hr pulse Day 1, washout",25%
same,cell death by microscopy,H1703 cells; [3],weak activity
